The values below come from patent publication US8530667B2, “Herbicides” (Syngenta Limited, priority 2007, dated 2013).

What all share (assay type): in vivo
For assay [1], the system named is Alopecurus myosuroides (ALOMY). Briefly: Example A pre-emergence herbicidal activity, glasshouse pot test. Particulars: Rate 250 g/ha, evaluated 19 or 20 days later, read-out: Pre-Emergence Activity ALOMY (100=total damage to plant; 0=no damage to plant). The method, then:
(§1) Seeds of a variety of test species were sown in standard soil in pots. After cultivation for one day (pre-emergence) or after 10 days cultivation (post-emergence) under controlled conditions in a glasshouse, the plants were sprayed with an aqueous spray solution derived from the formulation of the technical active ingredient in 0.6 ml acetone and 45 ml formulation solution containing 10.6% Emulsogen EL (Registry number 61791-12-6), 42.2% N-methylpyrrolidone, 42.2% dipropylene glycol monomethyl ether (Registry number 34590-94-8) and 0.2% X-77 (Registry number 11097-66-8). The test plants were then grown in a greenhouse under optimum conditions until, 14 or 15 days later for post-emergence and 19 or 20 days for pre-emergence, the test was evaluated (100=total damage to plant; 0=no damage to plant). Alopecurus myosuroides (ALOMY), Avena fatua (AVEFA), Lolium perenne (LOLPE), Setaria faberi (SETFA), Digitaria sanguinalis (DIGSA), Echinochloa crus-galli (ECHCG)

Assay [2] concerns Echinochloa crus-galli (ECHCG). The assay is described as above. As to conditions: Rate 250 g/ha, evaluated 19 or 20 days later, read-out: Pre-Emergence Activity ECHCG (100=total damage to plant; 0=no damage to plant). The method, then: as §1
Assay [3] concerns Avena fatua (AVEFA). The description is as above. Particulars: Rate 250 g/ha, evaluated 19 or 20 days later, read-out: Pre-Emergence Activity AVEFA (100=total damage to plant; 0=no damage to plant). The method, then:
as §1

Assay [4] relates to Lolium perenne (LOLPE). Described as above. As to conditions: Rate 250 g/ha, evaluated 19 or 20 days later, read-out: Pre-Emergence Activity LOLPE (100=total damage to plant; 0=no damage to plant). The method, then:
as §1

Assay [5] deals with Setaria faberi (SETFA). The assay is described as above. As to conditions: Rate 250 g/ha, evaluated 19 or 20 days later, read-out: Pre-Emergence Activity SETFA (100=total damage to plant; 0=no damage to plant). The method, then: as §1
Assay [6] deals with Digitaria sanguinalis (DIGSA). The assay is described as above. Particulars: Rate 250 g/ha, evaluated 19 or 20 days later, read-out: Pre-Emergence Activity DIGSA (100=total damage to plant; 0=no damage to plant). The method, then:
as §1

Assay [7] has as its system Alopecurus myosuroides (ALOMY). Briefly: Example B post-emergence herbicidal activity, glasshouse pot test. As to conditions: 312 h, rate 1000 g/ha, evaluated after 13 days, read-out: Post-emergence activity ALOMY (100=total damage to plant; 0=no damage to plant). The method, boiled down:
(§2)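 Seeds sown in standard soil in pots were sprayed 1 day (pre-emergence) or 8 days (post-emergence) after sowing with the active ingredient in acetone/water (50:50) plus 0.5% Tween 20. Plants were kept in a glasshouse at 24/16° C day/night, 14 h light, 65% humidity. Damage was scored after 13 days (0–100).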

Assay [8] has as its system Echinochloa crus-galli (ECHCG). The assay is described as above. As to conditions: 312 h, rate 1000 g/ha, evaluated after 13 days, read-out: Post-emergence activity ECHCG (100=total damage to plant; 0=no damage to plant). The method, boiled down:
as §2

In assay [9] the test system is Avena fatua (AVEFA). The assay is described as above. As to conditions: 312 h, rate 1000 g/ha, evaluated after 13 days, read-out: Post-emergence activity AVEFA (100=total damage to plant; 0=no damage to plant). The method, boiled down: as §2
Assay [10] concerns Setaria faberi (SETFA). The assay is described as above. Particulars: 312 h, rate 1000 g/ha, evaluated after 13 days, read-out: Post-emergence activity SETFA (100=total damage to plant; 0=no damage to plant). The method, boiled down: as §2
The test system of assay [11] is Amaranthus retoflexus (AMARE). Described as above. As to conditions: Amaranthus retroflexus, 312 h, rate 1000 g/ha, evaluated after 13 days, read-out: Post-emergence activity AMARE (100=total damage to plant; 0=no damage to plant). Summed up:
as §2

In assay [12] the test system is Alopecurus myosuroides (ALOMY). Briefly: Example A post-emergence herbicidal activity, glasshouse pot test. Particulars: Rate 125 g/ha, evaluated 14 or 15 days later, read-out: Post-Emergence Activity ALOMY (100=total damage to plant; 0=no damage to plant). The method, then:
as §1

The test system of assay [13] is Echinochloa crus-galli (ECHCG). Described as above. Particulars: Rate 125 g/ha, evaluated 14 or 15 days later, read-out: Post-Emergence Activity ECHCG (100=total damage to plant; 0=no damage to plant). The method, then:
as §1

Assay [14] deals with Avena fatua (AVEFA). Described as above. As to conditions: Rate 125 g/ha, evaluated 14 or 15 days later, read-out: Post-Emergence Activity AVEFA (100=total damage to plant; 0=no damage to plant). The method, then:
as §1

Assay [15] has as its system Lolium perenne (LOLPE). The description is as above. As to conditions: Rate 125 g/ha, evaluated 14 or 15 days later, read-out: Post-Emergence Activity LOLPE (100=total damage to plant; 0=no damage to plant). The method, then: as §1
The test system of assay [16] is Setaria faberi (SETFA). The description is as above. Particulars: Rate 125 g/ha, evaluated 14 or 15 days later, read-out: Post-Emergence Activity SETFA (100=total damage to plant; 0=no damage to plant). The method, then: as §1
Assay [17] deals with Digitaria sanguinalis (DIGSA). The description is as above. As to conditions: Rate 125 g/ha, evaluated 14 or 15 days later, read-out: Post-Emergence Activity DIGSA (100=total damage to plant; 0=no damage to plant). The method, then:
as §1

In the case of `COc1ccc(-c2nc(C3C(=O)[C@@H]4[C@H](C3=O)[C@H]3CC[C@@H]4O3)c(C)s2)cc1` (some centres unmarked) [Compound T21], the pest or weed control at 250 g/ha was 90% in [1]; 100% in [2]; 70% in [3]; 90% in assay [4]; 100% in [5]; 100% in assay [6]. The pest or weed control at 1000 g/ha turned out to be 100% in [7]; 100% in [8]; 100% in [9]; 100% in assay [10]; 0% in [11]. Moreover, the pest or weed control at 125 g/ha in [12] turned out to be 50%; in assay [13] it was 100%; in [14], 20%; in assay [15] it was 40%; in assay [16] it was 80%; in assay [17], 80%.
Take `Cc1sc(-c2ccc(Cl)cc2)nc1C1C(=O)[C@@H]2[C@H](C1=O)[C@@]1(C)CC[C@]2(C)O1` (some centres unmarked) [Compound T26]: the pest or weed control at 250 g/ha was determined as 90% in assay [1]; 80% in assay [2]; 60% in assay [3]; 70% in [4]; 100% in assay [5]; 100% in assay [6]. The pest or weed control at 125 g/ha was 10% in [12]; 0% in [13]; 0% in [14]; 0% in [15]; 0% in assay [16]; 30% in [17].
On to `CCc1sc(-c2ccc(Cl)cc2)nc1C1C(=O)[C@@H]2[C@H](C1=O)[C@@]1(C)CC[C@]2(C)O1` (some centres unmarked) [Compound T27], for which the pest or weed control at 250 g/ha is 70% in assay [1]; 70% in [2]; 60% in assay [3]; 90% in assay [4]; 100% in assay [5]; 100% in assay [6]. In addition, the pest or weed control at 125 g/ha in assay [12] worked out at 80%; in [13], 100%; in assay [14], 90%; in [15], 40%; in [16], 80%; in [17], 100%.
Consider `Cc1sc(-c2ccc(Br)cc2)nc1C1C(=O)[C@@H]2[C@H](C1=O)[C@H]1CC[C@@H]2O1` (some centres unmarked) [Compound T28], for which the pest or weed control at 250 g/ha in assay [1], in [2], in assay [3], in assay [4], in assay [5] and in [6] was 100% each time. The pest or weed control at 125 g/ha in assay [12] was 70%; in assay [13], 100%; in assay [14], 70%; in assay [15], 50%; in [16], 80%; in assay [17], 100%.
For `Cc1sc(-c2ccc(Cl)nc2)nc1C1C(=O)[C@@H]2[C@H](C1=O)[C@H]1CC[C@@H]2O1` (some centres unmarked) [Compound T30], the pest or weed control at 250 g/ha in assay [1] was determined as 10%; in [2], 80%; in [3], 30%; in assay [4], 40%; in assay [5] it was 70%; in [6], 60%. Moreover, the pest or weed control at 125 g/ha was 0% in [12]; 70% in assay [13]; 10% in assay [14]; 20% in assay [15]; 40% in [16]; 70% in assay [17].
